Test systems include A549; ACHN; BT-549; CCRF-CEM; COLO 205; DU-145; HCT-15; HOP-62; KM12; NCI-H23; OVCAR-4; OVCAR-8; PC-3; RPMI-8226; RXF 393; SF-295; SF-539; SNB-75; U-251; UACC-62.
Assay in all cases: NCI tumour cell line growth inhibition, 48 h

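How tested: cells in 96-well plates exposed to compound for 48 hours at five concentrations. Abbreviation: GI50, concentration required for 50% inhibition of growth.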 Active and inactive are the calls of the source. No stated cut-off is given here; in the data, active = GI50 up to about 1.1 µM and inactive = higher.

With `CCOC(=O)/C(C#N)=C(/NNc1ccccc1)c1ccncc1C(=O)O`, the GI50 in the assay on A549 was > 52.7 µM (inactive); in the assay on ACHN, > 21.5 µM (inactive); in the assay on BT-549, > 100 µM (inactive); in the assay on CCRF-CEM, > 38.2 µM (inactive); with COLO 205, 4.37 µM (inactive); in the assay on DU-145, > 42.7 µM (inactive). Moreover, the GI50 in the assay with HCT-15 was more than 22.7 µM; in the assay on HOP-62, > 100 µM (inactive); with KM12, 3.4 µM (inactive); with NCI-H23, > 100 µM (inactive); in the assay with OVCAR-4, > 100 µM (inactive); with OVCAR-8, > 32.4 µM (inactive). Also, the GI50 with PC-3 is 7.08 µM (inactive); in the assay on RPMI-8226, > 56.8 µM (inactive); in the assay on RXF 393, > 100 µM (inactive); in the assay with SF-295 it was 5.47 µM (inactive); in the assay on SF-539, 24.7 µM (inactive); in the assay on SNB-75 it was > 100 µM (inactive). Further, the GI50 is > 100 µM (inactive) with U-251 and 5.15 µM (inactive) in the assay with UACC-62.
In the case of `N=C(N)NCCCC(NC(=O)OCCCCCn1ccc(N)nc1=O)C(=O)O` (stereo not given), the GI50 in the assay with A549, in the assay with ACHN, in the assay with BT-549, in the assay with CCRF-CEM, in the assay on COLO 205 and in the assay with DU-145 was > 100 µM (inactive) throughout. For the same compound, the GI50 in the assay on HCT-15 was more than 100 µM; in the assay on HOP-62, > 100 µM (inactive); in the assay on KM12, > 100 µM (inactive); in the assay on NCI-H23, > 100 µM (inactive); with OVCAR-4, > 100 µM (inactive); in the assay on OVCAR-8 it was > 100 µM (inactive). In addition, the GI50 in the assay with PC-3, with RPMI-8226, in the assay on RXF 393, in the assay on SF-295, with SF-539 and in the assay on SNB-75 was > 100 µM (inactive) throughout. Moreover, the GI50 in the assay on U-251 and in the assay on UACC-62 was > 100 µM (inactive) throughout.

Values taken from ChEMBL document CHEMBL1201862, “PubChem BioAssay data set” (2004).
